Values joined by “and” are separate entries in the source; they are usually repeats but may differ in a detail not shown here. Equal entries are not always repeated.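 Cultured in 96-well plates, cells were exposed to test compound for 48 hours across five concentrations. GI50 = concentration required for 50% inhibition of growth. TGI: total growth inhibition.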 *1 amine or outer side, *2 acyl side, *3 side chain or, on linkers, in order; H or OH if unused. Where a SMILES comes first, the peptide text is derived from it. [ ]: non-standard residue; d: D form. X56 = CC[C@H](C)[C@H](OC(=O)[C@@H](C)[C@@H](CC)N[*:1])C(=O)[*:2]; X32 = C[C@H](N[*:1])C(=O)C(C)(C)C(=O)[*:2]; NMeY = CN[C@@H](Cc1ccc(O)cc1)C(=O)O; NMeL = CN[C@@H](CC(C)C)C(=O)O; NMeV = CN[C@H](C(=O)O)C(C)C
Key:
Experiment in all cases: inhibition of tumour cell growth, NCI panel, 48 h
[1] = system: A498 renal
[2] = system: EKVX NSCLC
[3] = system: HL-60(TB) leukemia
[4] = system: UO-31 renal
[5] = system: MOLT-4 leukemia
[6] = system: CCRF-CEM leukemia
[7] = system: HCC-2998 colon
[8] = system: BT-549 breast
[9] = system: HS 578T breast
[10] = system: NCI/ADR-RES ovarian

| SMILES | TGI [1] | TGI [2] | TGI [3] [µM] | TGI [4] | TGI [5] [µM] | TGI [6] [µM] | TGI [7] [µM] | GI50 [6] [µM] | GI50 [7] [µM] | GI50 [1] [µM] | GI50 [2] [µM] | GI50 [3] [µM] | GI50 [8] [µM] | TGI [8] [µM] | GI50 [4] [µM] | GI50 [5] [µM] | GI50 [9] [µM] | TGI [9] [µM] | GI50 [10] [µM] | TGI [10] [µM] |
| --- | --- | --- | --- | --- | --- | --- | --- | --- | --- | --- | --- | --- | --- | --- | --- | --- | --- | --- | --- | --- |
| COc1ccc(-c2c(N)[n+]([O-])c3ccccc3[n+]2[O-])cc1OC | > 100 µM | > 100 µM | > 100 | > 100 µM | > 100 |  |  |  |  |  |  |  |  |  |  |  |  |  |  |  |
| Cc1c2c(cc3c(=O)ccn(CCN(C)C)c13)c(=O)ccn2CCN(C)C | 38 µM | 29 µM | 41.6 | 34.3 µM | 13.6 | 27.9 | 20.3 |  |  |  |  |  |  |  |  |  |  |  |  |  |
| S=c1nc(N2CCCCC2)ss1 | 43.3 µM | 55.8 µM | 44.3 | 39.6 µM | 33.3 | 46.4 | 30 |  |  |  |  |  |  |  |  |  |  |  |  |  |
| CC(=O)/C=C/c1ccc(C)cc1 | > 100 µM | > 100 µM | > 100 | > 100 µM | > 100 | > 100 | > 100 |  |  |  |  |  |  |  |  |  |  |  |  |  |
| Cc1ccc(Sc2sc(-c3ccccc3)nc2[P+](c2ccccc2)(c2ccccc2)c2ccccc2)cc1 | 0.568 µM | 0.932 µM | 0.521 | 0.811 µM | 1.59 | 2 | 1.63 | 0.373 | 0.453 | 0.137 | 0.266 | 0.194 | 0.32 | 1.18 | 0.24 | 0.363 |  |  |  |  |
| CCOC(=O)Nc1nc2c(C)cccc2s1 | 54.8 µM |  | > 100 | > 100 µM | > 100 | > 100 | > 100 | 54.8 | 64.7 | 11.7 |  | 29.9 | 35.8 | > 100 | 33.5 | 38.1 | 36.1 | > 100 | 38.9 | > 100 |
| COC1=C(Br)C(=O)C2=C(C1=O)C1C3=C(C(=O)C=CC3=O)C2c2ccccc21 (configuration not stated) |  | 22.2 µM |  | 41.2 µM | > 100 | > 100 | 19.5 | 3.16 | 0.565 |  | 5.81 |  | 16.8 | 38.3 | 12.2 | 4.99 | 4.82 | > 100 | 18.8 | 61.5 |
| NNC(=O)/C(NC(=O)c1ccccc1)=C(\N)c1ccc(Cl)cc1 | > 100 µM | > 100 µM | > 100 | > 100 µM | > 100 | > 100 | > 100 |  |  |  |  |  |  |  |  |  |  |  |  |  |
| CC[C@H](C)[C@@H]1OC(=O)[C@@H](C)[C@@H](CC)NC(=O)[C@H](C)NC(=O)C(C)(C)C(=O)[C@H](C)NC(=O)[C@H](Cc2ccc(OC)cc2)N(C)C(=O)[C@H](C(C)C)N(C)C(=O)CNC(=O)[C@H](CC(C)C)N(C)C(=O)CNC1=O (cyclo(A[X56]G[NMeL]G[NMeV][NMeY](Me)[X32])) | 1.38 µM and 0.197 µM | 1.82 µM and 8.44 µM |  | 0.383 µM and 0.428 µM | 0.784 |  | 3.94 | < 0.0152 |  | 0.0398 | 0.0668 |  |  | 0.28 |  | 0.0807 |  |  |  | 9.92 |
| C=CCn1cc(C(=O)NC(=O)NCCCCCOC(=O)CCCCCCCCCCC(=O)OCCCCCNC(=O)NC(=O)c2cn(CC=C)c(=O)n(C)c2=O)c(=O)n(C)c1=O | > 100 µM | > 100 µM | > 100 | > 100 µM | > 100 | > 100 | > 100 |  |  |  |  |  |  |  |  |  |  |  |  |  |
| COC(=O)C1C(OCc2ccccc2)C2CCC1(OC)C=C2C (configuration not stated) | > 100 µM | > 100 µM | 29.8 | > 100 µM | 80.6 | 65 | > 100 |  |  |  |  |  |  |  |  |  |  |  |  |  |
| Nc1ncnc2c1cnn2Cc1ccc(Cl)cc1 | 68.6 µM |  | > 100 | > 100 µM | > 100 | > 100 | > 100 |  |  |  |  |  | 72.1 | > 100 |  |  |  | > 100 |  | > 100 |
| COc1cc(Nc2nc3ccc(C(F)(F)F)cc3nc2-c2ccccc2)cc(OC)c1OC | 78 µM | 79.7 µM |  | 55.7 µM | > 100 | > 100 | 25.9 |  |  |  |  |  |  |  |  |  |  |  |  |  |
| Cc1ccc2c(c1)CNc1ccc(C)cc1CN2 |  | > 100 µM | > 100 | > 100 µM | > 100 | > 100 |  |  |  |  |  |  |  |  |  |  |  |  |  |  |
| O=C(/C=C/c1ccccc1Cl)c1ccc(Cl)cc1Cl | 33.3 µM | 32.9 µM | 46.3 | 36.9 µM | 26 | 17.4 | 33.1 |  |  |  |  |  |  |  |  |  |  |  |  |  |
| C1=Nc2ccccc2C=Nc2ccccc2C=Nc2ccccc2C=Nc2ccccc21.[Cl-].[Pt+2] | 61.5 µM | > 100 µM | 22.4 | 45.5 µM | 49.3 | 67.2 |  | 14.9 |  | 23.2 | 37.5 | 3.95 |  |  | 20.8 | 14.1 |  |  |  |  |
| N#CC1CC2(C(=O)C1=O)c1ccccc1-c1ccccc12 (configuration not stated) | > 100 µM | > 100 µM | > 100 | > 100 µM | > 100 | > 100 | > 100 |  |  |  |  |  |  |  |  |  |  |  |  |  |
| Clc1ccc(Nc2ccnc(NCCCNc3ccnc4cc(Cl)ccc34)n2)cc1 | 2.66 µM |  |  | 3.31 µM |  |  |  |  |  | 1.29 |  |  | 1.74 | 3.67 | 1.68 |  | 1.73 | 3.8 | 1.76 | 3.38 |
| c1ccc(COC2(OCc3ccccc3)CC3OC2C2NN=NC32)cc1 (configuration not stated) | > 100 µM |  | 33.7 | 99.2 µM | 37.9 | 33.1 | > 10 |  |  |  |  |  |  |  |  |  |  |  |  |  |
| CCNCCCn1c2c(c3ccc([N+](=O)[O-])cc3c1=O)C(=O)c1cc(OC)cnc1-2 |  | 1.27 µM | 0.657 | 0.176 µM | 0.25 | 1.23 | 0.66 | 0.0366 | 0.151 |  | 0.204 | 0.037 | 0.172 | 1.2 | 0.0327 | 0.029 | 1.05 | 4.33 | 0.0559 | 0.689 |
| O=c1c2ccccc2nc(-c2cccc(Cl)c2)n1NCC1(O)OCC(O)C(O)C1O (configuration not stated) | > 100 µM | > 100 µM | > 100 | > 100 µM | > 100 | > 100 |  |  |  |  |  |  |  |  |  |  |  |  |  |  |
| COc1cc2c(c(OC)c1OC)-c1ccc(OC)c(=O)cc1[C@@H](N(C)C=O)CC2 | 0.665 µM | > 100 µM | 0.0329 | > 100 µM | > 100 | > 100 | > 100 |  |  |  |  |  |  |  |  |  |  |  |  |  |
